{"source": "patent US4175125A", "about": "“Method for treating methicillin resistant staphylococcus aureus” (Eli Lilly and Company, priority 1978, dated 1979)", "key": {"[1]": {"tested_on": "Staphylococcus aureus cultures", "assay": "Agar dilution susceptibility test, phenylthioacetyl cephalosporins vs methicillin resistant S. aureus (Example 9)", "format": "cell-based", "conditions": "for MIC: Staphylococcus aureus, read-out: MIC", "text": "This example compares the antibiotic activities of three known compounds, methicillin, cephalothin, and cephaloridine, with three compounds from the above examples, in terms of minimum inhibitory concentration (MIC) values in microgram/milliliter units against various isolates of Staphylococcus aureus cultures. The culture numbers and the procedures used to obtain the reported data are disclosed by W. E. Wick and D. A. Preston in their article \"Heterogeneous Methicillin-Resistant Staphylococcus Aureus\" which appeared in Progress in Antimicrobial And Anticancer Chemotherapy, Proceedings of the 6th International Congress of Chemotherapy, Volume, 1, U. of Tokyo Press, Tokyo, (1970). In these agardilution susceptibility tests, the inocula were diluted to 10^3 bacteria per spot. Cultures 3055 (benzylpenicillin sensitive) and H232 (benzylpenicillin-resistant) are controls. The remaining cultures are methicillin-resistant, and, except for 3136, are clinical isolates. Culture 3136 is a 4th transfer laboratory selected mutant."}, "[2]": {"tested_on": "Staphylococcus aureus cultures", "assay": "Broth dilution MIC in trypticase soy broth, low and high NaCl (Example 10)", "format": "cell-based", "conditions": "Staphylococcus aureus, TSB, read-out: MIC", "method": "This example compares the antibiotic activities of methicillin, cephalothin and cephaloridine with the compounds of Examples 1, 2 and 3, in broth dilution tests. The MIC values, in μg/ml., are against the same Staphylococcus aureus cultures described in Example 9, except that in this example the cultures were grown in trypticase soy broth (TSB). Growing the cultures in two broth cultures, one having a low (0.5 percent) sodium chloride content and one having a high (5.0 percent) sodium chloride content is said to assist in identifying the methicillin-resistant cultures from those which are not methicillin-resistant. […] See Chabbert, Y. A., 1967 Postgrad. Med. J., 43 (suppl); 40-46. One expects that similar changes in MIC values for this type of culture to other β-lactam antibiotics, e.g., various penicillins and cephalosporins, to have similar implications. […] That is, methicillin-resistant S.aureus cultures are susceptible to the cephalosporin antibiotics used in this invention."}, "[3]": {"conditions": "culture 3130, table part marked b"}, "[4]": {"conditions": "culture 3130, table part marked c"}, "[5]": {"conditions": "culture 3131, table part marked b"}, "[6]": {"conditions": "culture 3131, table part marked c"}, "[7]": {"conditions": "culture 3134, table part marked b"}, "[8]": {"conditions": "culture 3134, table part marked c"}, "[9]": {"conditions": "culture 3135, table part marked b"}, "[10]": {"conditions": "culture 3135, table part marked c"}, "[11]": {"conditions": "culture 3136, table part marked b"}, "[12]": {"conditions": "culture 3136, table part marked c"}, "[13]": {"conditions": "culture 3137, table part marked b"}, "[14]": {"conditions": "culture 3137, table part marked c"}, "[15]": {"conditions": "culture 3138, table part marked b"}, "[16]": {"conditions": "culture 3138, table part marked c"}, "[17]": {"conditions": "culture 3139, table part marked b"}, "[18]": {"conditions": "culture 3139, table part marked c"}, "[19]": {"conditions": "culture (Seattle) 966, table part marked b"}, "[20]": {"conditions": "culture (Seattle) 966, table part marked c"}, "[21]": {"conditions": "culture S61, table part marked b"}, "[22]": {"conditions": "culture S61, table part marked c"}}, "data": [{"smiles": "CC(=O)OCC1=C(C(=O)O)N2C(=O)C(NC(=O)CSc3ccc(Cl)c(Cl)c3)C2SC1", "note": "(stereo not drawn) [Example 1, 7-(3,4-dichlorophenylthioacetamido)cephalosporanic acid]", "values": [{"measurement": "MIC", "setting": "[1]; culture 3055 (control, benzylpenicillin sensitive), table part marked b", "value": "< 0.06", "unit": "µg/mL"}, {"measurement": "MIC", "setting": "[1]; culture 3055 (control, benzylpenicillin sensitive), table part marked c", "value": "< 0.06", "unit": "µg/mL"}, {"measurement": "MIC", "setting": "[1]; [3]", "value": 0.5, "unit": "µg/mL"}, {"measurement": "MIC", "setting": "[1]; [4]", "value": 1, "unit": "µg/mL"}, {"measurement": "MIC", "setting": "[1]; [5]", "value": 1, "unit": "µg/mL"}, {"measurement": "MIC", "setting": "[1]; [6]", "value": 1, "unit": "µg/mL"}, {"measurement": "MIC", "setting": "[1]; culture 3132, table part marked b", "value": 0.5, "unit": "µg/mL"}, {"measurement": "MIC", "setting": "[1]; culture 3132, table part marked c", "value": 0.25, "unit": "µg/mL"}, {"measurement": "MIC", "setting": "[1]; culture 3133, table part marked b", "value": 0.5, "unit": "µg/mL"}, {"measurement": "MIC", "setting": "[1]; culture 3133, table part marked c", "value": 1, "unit": "µg/mL"}, {"measurement": "MIC", "setting": "[1]; [7]", "value": 1, "unit": "µg/mL"}, {"measurement": "MIC", "setting": "[1]; [8]", "value": 0.5, "unit": "µg/mL"}, {"measurement": "MIC", "setting": "[1]; [9]", "value": 0.5, "unit": "µg/mL"}, {"measurement": "MIC", "setting": "[1]; [10]", "value": 0.25, "unit": "µg/mL"}, {"measurement": "MIC", "setting": "[1]; [11]", "value": 0.5, "unit": "µg/mL"}, {"measurement": "MIC", "setting": "[1]; [12]", "value": 0.5, "unit": "µg/mL"}, {"measurement": "MIC", "setting": "[1]; [13]", "value": 2, "unit": "µg/mL"}, {"measurement": "MIC", "setting": "[1]; [14]", "value": 2, "unit": "µg/mL"}, {"measurement": "MIC", "setting": "[1]; [15]", "value": 1, "unit": "µg/mL"}, {"measurement": "MIC", "setting": "[1]; [16]", "value": 0.5, "unit": "µg/mL"}, {"measurement": "MIC", "setting": "[1]; [17]", "value": 1, "unit": "µg/mL"}, {"measurement": "MIC", "setting": "[1]; [18]", "value": 0.25, "unit": "µg/mL"}, {"measurement": "MIC", "setting": "[1]; [19]", "value": 0.5, "unit": "µg/mL"}, {"measurement": "MIC", "setting": "[1]; [20]", "value": 0.25, "unit": "µg/mL"}, {"measurement": "MIC", "setting": "[1]; culture H232 (control, benzylpenicillin-resistant), table part marked b", "value": "< 0.06", "unit": "µg/mL"}, {"measurement": "MIC", "setting": "[1]; culture H232 (control, benzylpenicillin-resistant), table part marked c", "value": "< 0.06", "unit": "µg/mL"}, {"measurement": "MIC", "setting": "[1]; culture Kavarmark 1138501, table part marked b", "value": 0.5, "unit": "µg/mL"}, {"measurement": "MIC", "setting": "[1]; culture Kavarmark 1138501, table part marked c", "value": 0.5, "unit": "µg/mL"}, {"measurement": "MIC", "setting": "[1]; [21]", "value": 0.5, "unit": "µg/mL"}, {"measurement": "MIC", "setting": "[1]; [22]", "value": 1, "unit": "µg/mL"}, {"measurement": "effectiveness in in vitro tests vs methicillin, cephalothin and cephaloridine", "setting": "[1]; various cultures of methicillin-resistant Staphylococcus aureus", "value": "substantially more effective than methicillin, cephalothin, and cephaloridine"}, {"measurement": "MIC", "setting": "[2]; culture 3055 (control), table part marked b", "value": 0.06, "unit": "µg/mL"}, {"measurement": "MIC", "setting": "[2]; culture 3055 (control), table part marked c", "value": 0.06, "unit": "µg/mL"}, {"measurement": "MIC", "setting": "[2]; [3]", "value": 0.5, "unit": "µg/mL"}, {"measurement": "MIC", "setting": "[2]; [4]", "value": 4, "unit": "µg/mL"}, {"measurement": "MIC", "setting": "[2]; [5]", "value": 1, "unit": "µg/mL"}, {"measurement": "MIC", "setting": "[2]; [6]", "value": 2, "unit": "µg/mL"}, {"measurement": "MIC", "setting": "[2]; culture 3132 (first column so headed), table part marked b", "value": "< 0.5", "unit": "µg/mL"}, {"measurement": "MIC", "setting": "[2]; culture 3132 (first column so headed), table part marked c", "value": 2, "unit": "µg/mL"}, {"measurement": "MIC", "setting": "[2]; culture 3132 (second column so headed), table part marked b", "value": "< 0.5", "unit": "µg/mL"}, {"measurement": "MIC", "setting": "[2]; culture 3132 (second column so headed), table part marked c", "value": 2, "unit": "µg/mL"}, {"measurement": "MIC", "setting": "[2]; [7]", "value": 1, "unit": "µg/mL"}, {"measurement": "MIC", "setting": "[2]; [8]", "value": 4, "unit": "µg/mL"}, {"measurement": "MIC", "setting": "[2]; [9]", "value": "< 0.5", "unit": "µg/mL"}, {"measurement": "MIC", "setting": "[2]; [10]", "value": 2, "unit": "µg/mL"}, {"measurement": "MIC", "setting": "[2]; [11]", "value": 0.5, "unit": "µg/mL"}, {"measurement": "MIC", "setting": "[2]; [12]", "value": 2, "unit": "µg/mL"}, {"measurement": "MIC", "setting": "[2]; [13]", "value": 2, "unit": "µg/mL"}, {"measurement": "MIC", "setting": "[2]; [14]", "value": 4, "unit": "µg/mL"}, {"measurement": "MIC", "setting": "[2]; [15]", "value": 1, "unit": "µg/mL"}, {"measurement": "MIC", "setting": "[2]; [16]", "value": 1, "unit": "µg/mL"}, {"measurement": "MIC", "setting": "[2]; [17]", "value": 1, "unit": "µg/mL"}, {"measurement": "MIC", "setting": "[2]; [18]", "value": 1, "unit": "µg/mL"}, {"measurement": "MIC", "setting": "[2]; [19]", "value": 0.5, "unit": "µg/mL"}, {"measurement": "MIC", "setting": "[2]; [20]", "value": 2, "unit": "µg/mL"}, {"measurement": "MIC", "setting": "[2]; culture H232 (control), table part marked b", "value": 0.12, "unit": "µg/mL"}, {"measurement": "MIC", "setting": "[2]; culture H232 (control), table part marked c", "value": 0.25, "unit": "µg/mL"}, {"measurement": "MIC", "setting": "[2]; culture Kavarnick 1138501, table part marked b", "value": 0.5, "unit": "µg/mL"}, {"measurement": "MIC", "setting": "[2]; culture Kavarnick 1138501, table part marked c", "value": 2, "unit": "µg/mL"}, {"measurement": "MIC", "setting": "[2]; [21]", "value": 2, "unit": "µg/mL"}, {"measurement": "MIC", "setting": "[2]; [22]", "value": 2, "unit": "µg/mL"}, {"measurement": "MIC", "setting": "[2]; culture S, table part marked b", "value": 2, "unit": "µg/mL"}, {"measurement": "MIC", "setting": "[2]; culture S, table part marked c", "value": 2, "unit": "µg/mL"}]}]}
